According to article PMC5531637, “The effect of mangiferin on skin: Penetration, permeation and inhibition of ECM enzymes” (PLoS ONE, 2017):

Key:
[1] = biological target: porcine pancreatic elastase (Sus scrofa, UniProt P00772); test: Spectrophotometric elastase assay with SANA as substrate; assay type: biochemical
Procedure: A spectrophotometric elastase assay was performed as previously described [25], with N-Succ-(-Ala)3-p-nitroanilide (SANA) as the substrate. […] The addition of SANA started the reaction. Changes in product formation: p-nitroaniline was recorded every 20 seconds for 20 minutes in the absorbance λ = 410 nm with the use of the Epoch (BioTek System) spectrophotometer in 96-well plates (BIOCOM SYSTEMS). The oleanolic acid was used as a control [26]. Kinetic parameters Vo, Km and Vmax were calculated according to Michaelis-Menten and Lineweaver-Burk plots and analyzed in the GraphPad prism program and Excel.
As stated by the data supplier: 1U elastase hydrolyses 1 μM SANA/min at pH 8 and 25°C. The molar absorption coefficient of p-nitroaniline is 9800 M^–1 cm^–1.

[2] = biological target: Collagenase from Clostridium histolyticum; test: Spectrophotometric collagenase assay with FALGPA as substrate; assay type: biochemical
Procedure: A spectrophotometric collagenase assay was performed as previously described, with N-[3- (2-Furyl) acryloyl]- Leu- Gly- Pro-Ala (FALGPA) as the substrate. […] The reaction mixtures were preincubated with mangiferin solutions for 15 minutes at room temperature. The addition of FALGPA started the reaction. Changes in product formation were recorded every 20 seconds for 20 minutes in the absorbance λ = 335 nm with the use of the Epoch (BioTek System) spectrophotometer in 96-well plates (BIOCOM SYSTEMS). Oleanolic acid was used as a control. The kinetic parameters Vo, Km and Vmax were calculated according to Michaelis-Menten and Lineweaver-Burk plots and analyzed in the GraphPad prism program and Excel.
As stated by the data supplier: 1U of collagenase hydrolyses […] FALGPA/min at pH 7.5 and 25°C, in the presence of calcium ions.

[3] = assay type: in vitro ADME; conditions: human, 25 μg/ml
Procedure: The studies were performed using human cadaver full skin (thickness of 0.75 mm) obtained from the region of the thorax of 40–60 years old donors. The study was reviewed and approved by the Independent Bioethics Commission for Research of the Medical University of Gdansk (number NKBBN/120-41/2014). Before the experiment, the skin was stored frozen at -20 °C. The preparations were applied as an infinite dose (0.5 ml mangiferin solution at concentration of 25 μg/ml) on the surface of the skin placed in the flow-through Teflon® diffusion chamber (Crown Glass, USA), and left for 24 h. The diffusion area of the skin was 0.65 cm^2. The donor compartment of the chamber remained occluded, and the system was maintained at the temperature 37°C ± 0.5°C. Saline solution, 20 ml, preserved with 0.005% sodium azide (Fluka, Buchs, Switzerland) was recirculated beneath the skin with a constant rate of 10 ml/h. Acceptor fluid ensured the sink condition. After the penetrants were removed from the skin, the stratum corneum was separated by tape-stripping method, using 30 fragments of an adhesive tape (3M Medica Pharma, St. Paul, MN, USA). The following parameters were employed: pressure about 1 kg/cm^2 (applied by stamp), 2 s duration of pressure, and a rapid removal rate at an angle of 45^o. The skin layers were isolated by the heat separation technique. […]

[4] = set-up: method as in ref 21 = [21]; 21 Nuñez-Selles AJ . Antioxidant therapy: myth or reality? J Braz Chem Soc . 2005; 16 : 699 – 710 .; conditions: cited from earlier work
[5] = set-up: method as in ref 18 = [18]; 18 Acosta J , Sevilla I , Salomón S , Nuevas L , Romero A , Amaro D . Determination of mangiferin solubility in solvents used in the biopharmaceutical industry . Pharm Pharmacogn Res . 2016; 4 ( 2 ):; conditions: cited from earlier work
[6] = tested on: human acute myeloid leukemia cell line HL-60; set-up: method as in PMID 21547680; conditions: cited from earlier work
[7] = tested on: human cervix adenocarcinoma cell line (HeLa); set-up: method as in PMID 24633329; conditions: cited from earlier work
mice = conditions: 2 g/kg; cited from earlier work
rats = conditions: 2 g/kg; cited from earlier work

porcine pancreatic elastase, sequence (P00772 27-266): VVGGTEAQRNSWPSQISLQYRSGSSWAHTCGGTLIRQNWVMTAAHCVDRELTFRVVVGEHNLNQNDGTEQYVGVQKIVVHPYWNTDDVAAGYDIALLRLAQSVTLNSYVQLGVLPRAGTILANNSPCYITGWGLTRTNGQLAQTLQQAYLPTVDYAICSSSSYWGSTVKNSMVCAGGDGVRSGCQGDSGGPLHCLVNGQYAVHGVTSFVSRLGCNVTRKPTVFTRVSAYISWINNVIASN

O=c1c2cc(O)c(O)cc2oc2cc(O)c([C@@H]3O[C@H](CO)[C@@H](O)[C@H](O)[C@H]3O)c(O)c12 [mangiferin, 2-C-β-D-glucopyranosyl-1,3,6,7-tetrahydroxyxanthone]
type of elastase inhibition ([1]; Lineweaver-Burk plots, 0, 59, 118 and 177 μM): noncompetitive | IC50 ([1]; SANA 0.8 mM, pH 8, 15 min preincubation, read-out: concentration leading to a 50% loss of elastase activity (IC50)): 140 ± 9.34 µM | concentrations that inactivated elastase almost completely ([1]; SANA substrate): above 473 μM | reversibility of elastase inhibition ([1]; activity vs enzyme concentration plots, 0, 59, 118 and 177 μM): reversible | potency on elastase relative to oleanolic acid (fold lower) ([1]; vs reference oleanolic acid): 4.2 fold | IC50 ([2]; FALGPA 0.8 mM, pH 7.5, 15 min preincubation, read-out: concentration leading to a 50% loss of collagenase activity (IC50)): 254 ± 7.56 µM | concentrations that inactivated collagenase almost completely ([2]; FALGPA substrate): above 500 μM | type of collagenase inhibition ([2]; Lineweaver-Burk plots): noncompetitive | reversibility of collagenase inhibition ([2]; activity vs enzyme concentration plots): reversible | potency on collagenase relative to oleanolic acid (fold lower) ([2]; vs reference oleanolic acid): 4.9 fold | amount permeated through the skin from ethanol solution relative to water solution [3]: about 2 fold | concentration in the acceptor fluid after 24 hours relative to after 2 hours [3]: about 2 fold | log P [4]: 2.73 | solubility in ethanol ([5]; ethanol): slightly soluble | solubility in nonpolar solvents ([5]; some nonpolar solvents (e.g. n-hexane, diethyl ether)): practically insoluble | solubility in water ([5]; water): sparingly soluble | apoptosis in HL-60 cells [6]: induce apoptosis | effect on apoptotic effects of hesperidin in HeLa cells [7]: enhanced apoptotic effects of hesperidin | dermal acute toxicity (mice): did not show toxic effects | dermal acute toxicity (rats): did not show toxic effects
